Like-named read-outs stand apart in the source and are kept apart here.
How the values were obtained:
[1] = test system: PI3Ka E524K + p85; assay: Lipid kinase screening (ADP-Glo), PI3Ka E524K + p85; assay type: biochemical, human; conditions: 10 μM
Experimental: (§1) The lipid kinase screening for ICL-CCIC-0019, CK14, CK145 (5), CK146 (4) and CK147 (8) (testing concentration for all compounds: 10 μM) was performed by MRC PPU International Centre for Kinase Profiling (Dundee, UK). The lipid kinase screening panel includes 15 human recombinant lipid kinases and the tests used Promega ADP Glo^TM High Throughput Assay kit (Promega, Southampton, UK). For each assay, reference compounds were used as quality control. Finally, mean percentage activity inhibited by compounds and standard deviation for all the repeats were calculated.

[2] = biological target: DGK b (Homo sapiens, UniProt Q9Y6T7); assay: Lipid kinase screening (ADP-Glo), DGK b; assay type: biochemical
Experimental: as §1

[3] = test system: [18F]D4-FCH uptake in C4-2B cells; assay: [18F]D4-FCH uptake in vitro study, C4-2B; assay type: cell-based; conditions: Homo sapiens
Experimental: HCT-116 and C4-2B cells were seeded at a density of 5 × 10^5 cells per well into 6-well plates and incubated overnight. Cells were treated with 1 or 10 µM CHKA inhibitors (CK14, CK145, CK146 and CK147) for 1 h and pulsed with [^18F]D4-FCH (740 kBq) in presence of inhibitors in 1 mL for an additional hour at 37 °C. Cells were washed with ice-cold PBS three times and lysed in 1 mL RIPA buffer. The radioactivity of 800 µL lysate from each well was counted on a gamma counter (Perkin Elmer, Beaconsfield, UK) and normalized to protein content as determined by BCA assay.

[4] = biological target: PI3Ka E545K + p85 (Homo sapiens, UniProt P42336, E545K); assay: Lipid kinase screening (ADP-Glo), PI3Ka E545K + p85; assay type: biochemical
Chain of PI3Ka E545K + p85 (P42336 whole entry E545K): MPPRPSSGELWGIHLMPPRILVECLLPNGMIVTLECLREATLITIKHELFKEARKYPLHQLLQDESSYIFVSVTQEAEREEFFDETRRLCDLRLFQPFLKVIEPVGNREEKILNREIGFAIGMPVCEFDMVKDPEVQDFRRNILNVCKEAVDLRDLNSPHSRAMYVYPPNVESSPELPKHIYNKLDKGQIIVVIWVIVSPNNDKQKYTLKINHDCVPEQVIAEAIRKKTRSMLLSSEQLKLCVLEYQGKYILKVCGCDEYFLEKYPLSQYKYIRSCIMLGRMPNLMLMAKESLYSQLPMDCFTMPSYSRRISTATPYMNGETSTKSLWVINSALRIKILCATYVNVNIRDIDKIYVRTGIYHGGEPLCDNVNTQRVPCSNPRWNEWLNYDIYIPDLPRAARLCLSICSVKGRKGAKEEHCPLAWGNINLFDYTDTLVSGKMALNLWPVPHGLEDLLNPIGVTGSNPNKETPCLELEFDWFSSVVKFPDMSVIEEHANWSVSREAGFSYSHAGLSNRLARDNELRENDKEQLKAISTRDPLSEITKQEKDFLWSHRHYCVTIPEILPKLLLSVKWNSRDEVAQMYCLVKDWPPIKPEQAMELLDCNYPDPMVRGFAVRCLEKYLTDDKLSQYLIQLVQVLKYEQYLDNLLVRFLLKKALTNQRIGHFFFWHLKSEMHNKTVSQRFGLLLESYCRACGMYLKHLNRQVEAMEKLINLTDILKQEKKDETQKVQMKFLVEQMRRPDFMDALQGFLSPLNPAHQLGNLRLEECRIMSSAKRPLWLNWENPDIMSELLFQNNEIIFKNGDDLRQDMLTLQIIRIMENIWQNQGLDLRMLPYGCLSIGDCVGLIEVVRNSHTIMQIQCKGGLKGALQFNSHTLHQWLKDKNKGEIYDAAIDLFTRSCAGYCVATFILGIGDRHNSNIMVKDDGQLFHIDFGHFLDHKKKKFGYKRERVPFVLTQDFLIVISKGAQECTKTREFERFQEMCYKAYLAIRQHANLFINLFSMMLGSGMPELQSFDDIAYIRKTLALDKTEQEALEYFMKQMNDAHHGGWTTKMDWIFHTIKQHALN
Chain of PI3Ka E545K + p85 (P27986 whole entry partner): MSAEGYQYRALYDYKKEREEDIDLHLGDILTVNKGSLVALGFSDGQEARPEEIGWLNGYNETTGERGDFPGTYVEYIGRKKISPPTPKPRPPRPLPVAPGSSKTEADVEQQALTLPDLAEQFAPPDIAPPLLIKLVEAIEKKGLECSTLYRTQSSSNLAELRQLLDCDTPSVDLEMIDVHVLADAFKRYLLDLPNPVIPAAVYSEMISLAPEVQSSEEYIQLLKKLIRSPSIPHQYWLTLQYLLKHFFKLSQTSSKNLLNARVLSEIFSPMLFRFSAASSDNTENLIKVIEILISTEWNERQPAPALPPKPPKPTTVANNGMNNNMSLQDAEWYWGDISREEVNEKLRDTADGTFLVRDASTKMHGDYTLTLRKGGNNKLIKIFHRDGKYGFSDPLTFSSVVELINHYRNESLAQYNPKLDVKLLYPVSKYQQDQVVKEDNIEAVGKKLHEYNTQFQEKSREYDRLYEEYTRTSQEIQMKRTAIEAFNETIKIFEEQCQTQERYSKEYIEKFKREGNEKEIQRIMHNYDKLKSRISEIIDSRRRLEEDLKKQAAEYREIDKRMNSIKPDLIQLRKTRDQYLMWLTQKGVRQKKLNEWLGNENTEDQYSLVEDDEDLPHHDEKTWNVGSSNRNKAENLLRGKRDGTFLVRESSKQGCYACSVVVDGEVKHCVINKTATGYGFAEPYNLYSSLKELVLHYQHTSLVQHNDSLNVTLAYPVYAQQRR
Experimental: as §1

[5] = test system: HCT-116; conditions: cited from earlier work
[6] = test system: Δ49N CHKA2 (recombinant CHKA2); conditions: read-out: IC50 against recombinant CHKA2; cited from earlier work
[7] = biological target: CHK a (CHKA) (Homo sapiens, UniProt P35790); assay: Lipid kinase screening (ADP-Glo), CHKA; assay type: biochemical
Chain of CHK a (CHKA) (P35790 whole entry): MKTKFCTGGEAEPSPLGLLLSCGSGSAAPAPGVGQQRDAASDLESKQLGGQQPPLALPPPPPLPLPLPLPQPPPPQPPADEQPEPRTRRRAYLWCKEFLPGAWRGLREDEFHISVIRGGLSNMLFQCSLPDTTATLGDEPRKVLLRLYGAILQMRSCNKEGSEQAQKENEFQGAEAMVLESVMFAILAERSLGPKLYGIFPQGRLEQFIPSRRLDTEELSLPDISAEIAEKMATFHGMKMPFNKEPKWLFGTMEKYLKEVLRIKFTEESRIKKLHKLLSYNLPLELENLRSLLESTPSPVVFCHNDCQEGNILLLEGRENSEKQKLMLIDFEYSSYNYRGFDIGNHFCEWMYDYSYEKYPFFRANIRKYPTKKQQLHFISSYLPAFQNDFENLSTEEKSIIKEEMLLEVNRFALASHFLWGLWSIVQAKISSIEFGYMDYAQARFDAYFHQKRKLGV
Experimental: as §1

[8] = Caco-2 permeability and efflux study; assay type: in vitro ADME, human
Experimental: (§2) The ADME study for ICL-CCIC-0019, CK14, CK145 (5), CK146 (4) and CK147 (8) was performed by Charles River Drug Discovery Services (Essex, UK).
(§3) The predicted in vitro pharmacokinetic characteristics of compounds were evaluated by four ADME assays, namely kinetic solubility assay, metabolic stability assay using human liver microsome S9, permeability and efflux study using the Caco-2 cell line, and matrix stability assay using fasted state simulated gastric fluid (FaSSGF). All tested CHKA inhibitors were highly soluble (>150 μM) in 0.1 M PBS (2% DMSO) (Table 1). […] The in vivo clearance was calculated to predict the actual clearance in humans by scaling the clearance values, which takes into account liver weight, microsomes per liver and liver blood flow. […] In Caco-2 cell permeability assay, drug permeability was investigated and presented as apparent permeability coefficients (Papp) in A to B (A-B, apical to basolateral direction) and B to A (B-A, basolateral to apical direction).

[9] = Human microsomal metabolic stability assay; assay type: in vitro ADME
Experimental: as §2, §3

[10] = Kinetic solubility assay; assay type: physicochemical; conditions: aqueous buffer, kinetic from dmso stock
Experimental: as §2, §3

[11] = biological target: PI3K b (Homo sapiens, UniProt P42338); assay: Lipid kinase screening (ADP-Glo), PI3K b; assay type: biochemical
Experimental: as §1

[12] = biological target: DGK z (Homo sapiens, UniProt Q13574); assay: Lipid kinase screening (ADP-Glo), DGK z; assay type: biochemical
Experimental: as §1

[13] = biological target: PI3K a (Homo sapiens, UniProt P42336); assay: Lipid kinase screening (ADP-Glo), PI3K a; assay type: biochemical
Chain of PI3K a (P42336 whole entry): as the sequence (P42336 whole entry E545K) above, with K545E counted along it
Chain of PI3K a (P27986 whole entry partner): as the sequence (P27986 whole entry partner) above
Experimental: as §1

[14] = biological target: CHK b (CHKB) (Homo sapiens, UniProt Q9Y259); assay: Lipid kinase screening (ADP-Glo), CHKB; assay type: biochemical
Experimental: as §1

[15] = biological target: T1, SPHK2 (Homo sapiens, UniProt Q9NRA0); assay: Lipid kinase screening (ADP-Glo), SPHK2; assay type: biochemical
T1 sequence (Q9NRA0 1-654): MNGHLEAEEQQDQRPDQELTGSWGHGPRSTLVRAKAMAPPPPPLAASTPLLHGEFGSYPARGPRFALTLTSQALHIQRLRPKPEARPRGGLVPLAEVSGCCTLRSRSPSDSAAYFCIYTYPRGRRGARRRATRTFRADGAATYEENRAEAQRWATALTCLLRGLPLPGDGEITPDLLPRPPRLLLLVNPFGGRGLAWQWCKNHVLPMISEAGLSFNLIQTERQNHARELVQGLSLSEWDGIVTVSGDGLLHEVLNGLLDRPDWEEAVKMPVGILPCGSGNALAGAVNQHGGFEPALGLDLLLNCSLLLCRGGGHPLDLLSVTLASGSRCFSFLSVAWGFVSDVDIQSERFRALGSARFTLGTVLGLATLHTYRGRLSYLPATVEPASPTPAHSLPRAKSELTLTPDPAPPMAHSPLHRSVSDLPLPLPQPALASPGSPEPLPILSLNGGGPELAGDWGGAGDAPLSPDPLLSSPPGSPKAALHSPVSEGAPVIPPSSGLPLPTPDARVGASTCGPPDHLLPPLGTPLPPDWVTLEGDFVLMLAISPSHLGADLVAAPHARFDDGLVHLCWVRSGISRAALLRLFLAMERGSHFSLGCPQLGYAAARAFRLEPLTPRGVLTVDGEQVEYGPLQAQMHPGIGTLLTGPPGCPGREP
Experimental: as §1

[16] = Matrix stability assay in fasted state simulated gastric fluid (FaSSGF); assay type: in vitro ADME; conditions: for half-life: pH 1.6
Experimental: as §2, §3

[17] = biological target: SPHK1 (Homo sapiens, UniProt Q9NYA1); assay: Lipid kinase screening (ADP-Glo), SPHK1; assay type: biochemical
Experimental: as §1

[18] = test system: A549; conditions: cited from earlier work
[19] = biological target: PI4K2a (Homo sapiens, UniProt Q9BTU6); assay: Lipid kinase screening (ADP-Glo), PI4K2a; assay type: biochemical
Chain of PI4K2a (Q9BTU6 whole entry): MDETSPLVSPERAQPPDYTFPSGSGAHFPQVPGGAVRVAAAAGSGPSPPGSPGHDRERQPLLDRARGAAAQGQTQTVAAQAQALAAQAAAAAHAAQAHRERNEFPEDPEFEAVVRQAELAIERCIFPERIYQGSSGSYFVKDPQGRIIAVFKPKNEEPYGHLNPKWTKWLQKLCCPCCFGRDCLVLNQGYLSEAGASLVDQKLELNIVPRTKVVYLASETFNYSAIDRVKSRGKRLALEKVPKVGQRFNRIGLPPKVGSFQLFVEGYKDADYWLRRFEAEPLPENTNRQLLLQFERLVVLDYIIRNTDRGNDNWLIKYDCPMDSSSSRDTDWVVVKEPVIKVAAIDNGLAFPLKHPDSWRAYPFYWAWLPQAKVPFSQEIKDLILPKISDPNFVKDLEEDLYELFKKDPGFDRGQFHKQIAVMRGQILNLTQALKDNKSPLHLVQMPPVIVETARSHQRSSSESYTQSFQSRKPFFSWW
Experimental: as §1

[20] = biological target: DGK g (Homo sapiens, UniProt P49619); assay: Lipid kinase screening (ADP-Glo), DGK g; assay type: biochemical
Experimental: as §1

[21] = biological target: T2, PIP5K2A (Homo sapiens, UniProt P48426); assay: Lipid kinase screening (ADP-Glo), PIP5K2A; assay type: biochemical
T2 sequence (P48426 1-406): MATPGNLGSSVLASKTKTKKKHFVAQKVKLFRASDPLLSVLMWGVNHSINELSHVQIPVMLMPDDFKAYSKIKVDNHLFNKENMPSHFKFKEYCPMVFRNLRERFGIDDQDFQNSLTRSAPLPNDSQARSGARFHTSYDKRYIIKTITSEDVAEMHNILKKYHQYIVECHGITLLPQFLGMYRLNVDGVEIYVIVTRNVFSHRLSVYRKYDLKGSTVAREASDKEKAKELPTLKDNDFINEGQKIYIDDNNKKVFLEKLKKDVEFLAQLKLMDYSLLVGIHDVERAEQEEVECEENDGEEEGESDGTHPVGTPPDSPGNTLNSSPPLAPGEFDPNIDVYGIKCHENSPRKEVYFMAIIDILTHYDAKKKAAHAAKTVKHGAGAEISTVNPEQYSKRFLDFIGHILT
Experimental: as §1

[22] = biological target: phosphatidylinositol 4-kinase beta (PIK4CB) (Homo sapiens, UniProt Q9UBF8); assay: Lipid kinase screening (ADP-Glo), PIK4CB; assay type: biochemical
Chain of phosphatidylinositol 4-kinase beta (PIK4CB) (Q9UBF8 whole entry): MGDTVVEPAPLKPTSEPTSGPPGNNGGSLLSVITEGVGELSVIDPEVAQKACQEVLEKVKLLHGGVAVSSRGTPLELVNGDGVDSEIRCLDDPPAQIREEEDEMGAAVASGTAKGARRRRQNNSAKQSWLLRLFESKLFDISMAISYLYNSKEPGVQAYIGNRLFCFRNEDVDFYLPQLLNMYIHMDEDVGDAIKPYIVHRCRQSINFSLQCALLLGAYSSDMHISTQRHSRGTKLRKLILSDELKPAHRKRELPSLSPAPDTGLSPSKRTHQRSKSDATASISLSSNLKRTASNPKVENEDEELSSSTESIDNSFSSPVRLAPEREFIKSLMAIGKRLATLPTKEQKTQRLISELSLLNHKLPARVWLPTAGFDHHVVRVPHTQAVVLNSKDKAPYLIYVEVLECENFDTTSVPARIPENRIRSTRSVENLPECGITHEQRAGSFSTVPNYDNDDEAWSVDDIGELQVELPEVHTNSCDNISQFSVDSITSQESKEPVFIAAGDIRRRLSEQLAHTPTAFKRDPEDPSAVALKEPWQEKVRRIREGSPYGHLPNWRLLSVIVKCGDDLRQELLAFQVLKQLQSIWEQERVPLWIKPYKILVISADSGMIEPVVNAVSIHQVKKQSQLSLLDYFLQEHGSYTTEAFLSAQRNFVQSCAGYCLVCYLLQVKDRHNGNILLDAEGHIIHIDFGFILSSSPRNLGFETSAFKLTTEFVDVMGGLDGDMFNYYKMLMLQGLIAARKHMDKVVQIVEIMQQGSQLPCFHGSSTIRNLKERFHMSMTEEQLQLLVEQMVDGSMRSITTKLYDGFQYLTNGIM
Experimental: as §1

[23] = biological target: PI3K g (Homo sapiens, UniProt P48736); assay: Lipid kinase screening (ADP-Glo), PI3K g; assay type: biochemical
Chain of PI3K g (P48736 whole entry): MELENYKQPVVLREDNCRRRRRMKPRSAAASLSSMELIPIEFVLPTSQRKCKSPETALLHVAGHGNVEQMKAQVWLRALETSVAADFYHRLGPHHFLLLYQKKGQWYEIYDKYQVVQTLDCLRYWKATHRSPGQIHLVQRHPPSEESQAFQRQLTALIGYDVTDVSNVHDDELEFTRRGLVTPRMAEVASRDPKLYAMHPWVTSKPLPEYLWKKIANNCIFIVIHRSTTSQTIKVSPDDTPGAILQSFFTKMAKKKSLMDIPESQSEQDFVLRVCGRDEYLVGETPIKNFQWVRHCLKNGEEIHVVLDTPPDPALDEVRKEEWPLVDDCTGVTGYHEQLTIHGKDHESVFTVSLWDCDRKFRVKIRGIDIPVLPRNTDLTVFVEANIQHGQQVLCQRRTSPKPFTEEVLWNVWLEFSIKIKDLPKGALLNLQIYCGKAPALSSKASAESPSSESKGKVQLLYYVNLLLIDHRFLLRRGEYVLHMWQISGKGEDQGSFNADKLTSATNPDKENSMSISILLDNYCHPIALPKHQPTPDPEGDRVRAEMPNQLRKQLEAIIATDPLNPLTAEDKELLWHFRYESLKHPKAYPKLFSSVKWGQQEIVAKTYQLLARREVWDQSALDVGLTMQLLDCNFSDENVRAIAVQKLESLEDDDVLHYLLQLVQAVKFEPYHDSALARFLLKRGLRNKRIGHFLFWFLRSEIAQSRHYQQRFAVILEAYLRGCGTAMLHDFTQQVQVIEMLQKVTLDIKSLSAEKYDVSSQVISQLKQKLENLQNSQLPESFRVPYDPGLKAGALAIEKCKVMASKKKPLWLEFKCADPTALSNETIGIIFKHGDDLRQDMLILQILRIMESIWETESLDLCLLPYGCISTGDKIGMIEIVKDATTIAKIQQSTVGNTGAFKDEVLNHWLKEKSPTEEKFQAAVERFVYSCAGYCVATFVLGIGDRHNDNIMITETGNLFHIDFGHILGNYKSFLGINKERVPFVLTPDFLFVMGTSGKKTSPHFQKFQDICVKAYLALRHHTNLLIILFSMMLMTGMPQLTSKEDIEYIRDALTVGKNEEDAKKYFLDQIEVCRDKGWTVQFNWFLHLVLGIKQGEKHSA
Experimental: as §1

[24] = test system: Caco-2 cell line; assay: Caco-2 permeability and efflux study; assay type: in vitro ADME, human; conditions: Caco-2
Experimental: as §2, §3

[25] = Conjugate stability test of CK147 in medium (HPLC); assay type: physicochemical; conditions: up to 72 h
Experimental: To assess stability of CK147 in medium, 5 mL of medium containing 10% FCS and 1% L-glutamine was added sterilely to a six-well plate. Next, 1.7 μL of 300 mM CK147 in DMSO or 1.7 μL DMSO was added into wells and the plate was gently shaken for 5 s before being incubated at 37 °C in a humidified atmosphere containing 5% CO2. After 0, 2, 4, 6, 24, 48 and 72 h, 200 μL aliquots of medium from each well were transferred into a 1.5-mL tube containing 198.4 μL acetonitrile and 1.6 μL of 2.5 mg/mL ICL-CCIC-0019 as an internal standard (IS) […]. […] One hundred microliters of the solution were injected into the HPLC system described in Supplementary HPLC method D. Three repeats were performed for each sample.

Q: What does the source list for `CN(C)c1cc[n+](CCCCCCCCCCCCCC[n+]2ccc(N(C)C)cc2)cc1.[Br-].[Br-]` [CK14, reference compound]?
A: % Inhibition PI3Ka E524K + p85 [1]: 1.6%; inhibition at 10 µM [2]: 11.9%; inhibition at 1 µM ([3]; 1 μM, read-out: inhibition of [18F]D4-FCH uptake (mean of CK14, CK145 and CK146)): 46 ± 1%; inhibition at 10 µM ([3]; 10 μM): 93 ± 5%; inhibition at 10 µM [4]: -15.2%; GI50 [5]: 290 nM; IC50 [6]: 150 nM; inhibition at 10 µM [7]: 77%; efflux ratio ([8]; human, Caco-2, read-out: Efflux ratio (Papp B-A/Papp A-B)): > 87; Papp A→B ([8]; human, Caco-2, apical to basolateral, read-out: Papp A-B): < 0.1 ×10⁻⁶ cm/s; Papp B→A ([8]; human, Caco-2, basolateral to apical, read-out: Papp B-A): 8.7 ×10⁻⁶ cm/s; PCT_LBF % (percentage of compound removed compared to liver blood flow) ([9]; human): <45%; Human Microsomal Metabolic Stability: Remaining % ([9]; human liver microsome S9): 101%; microsomal CLint ([9]; human, human liver microsome S9, human liver microsome S9, read-out: Human Microsomal Metabolic Stability: Clint): < 14 µL/min/mg; half-life ([9]; human, human liver microsome S9, human liver microsome S9, read-out: Human Microsomal Metabolic Stability: Half-life): > 1.67 h; Predicted in vivo clearance ([9]; scaled from microsomal clearance (liver weight, microsomes per liver, liver blood flow), human): <10 mL/min/kg; solubility kinetic ([10]; 0.1 M PBS (2% DMSO), read-out: Kinetic Solubility: Solubility): 154 µM; inhibition at 10 µM [11]: -36.2%; inhibition at 10 µM [12]: 4.7%; inhibition at 10 µM [13]: -1.9%; inhibition at 10 µM [14]: -33.7%; inhibition at 10 µM [15]: 16%; Matrix Stability: Remaining % ([16]; FaSSGF): 95%; half-life ([16]; fasted state simulated gastric fluid (FaSSGF), fasted state simulated gastric fluid, read-out: FaSSGF stability Half-life (converted)): > 10 h; inhibition at 10 µM [17]: -10.1%; GI50 [18]: 330 nM; inhibition at 10 µM [19]: -48.8%; inhibition at 10 µM [20]: 12.8%; inhibition at 10 µM [21]: -2.7%; inhibition at 10 µM [22]: -4.1%; inhibition at 10 µM [23]: 16.4%

Q: What does the source list for `CN(C)c1cc[n+](CCCCCCCCCCCCCC[n+]2ccc(N3CCN(C(=O)CSC4CC(=O)N(CCC(=O)NCCCCCC(=O)NCCCCC(NC(=O)NC(CCC(=O)O)C(=O)O)C(=O)O)C4=O)CC3)cc2)cc1` (stereo not drawn) [CK147]?
A: inhibition at 10 µM [2]: -4.9%; inhibition at 10 µM [4]: 22.8%; inhibition at 10 µM [7]: 13.1%; Efflux ratio (Papp B-A/Papp A-B) [24]: too poor to permit calculation of the efflux ratio; Papp A→B ([8]; Caco-2): < 0.1 ×10⁻⁶ cm/s; Papp B→A ([8]; Caco-2): < 0.1 ×10⁻⁶ cm/s; PCT_LBF % (percentage of compound removed compared to liver blood flow) [9]: <45%; Predicted in vivo clearance [9]: <10 mL/min/kg; Human Microsomal Metabolic Stability: Remaining % ([9]; human): 105%; microsomal CLint ([9]; human, Human Microsomal Metabolic Stability: Clint): < 14 µL/min/mg; half-life ([9]; human, liver microsomes, Human Microsomal Metabolic Stability: Half-life): > 1.67 h; solubility kinetic [10]: 186 µM; inhibition at 10 µM [11]: -0.1%; inhibition at 10 µM [12]: 4.7%; inhibition at 10 µM [13]: -2.6%; inhibition at 10 µM [14]: 3.2%; inhibition at 10 µM [15]: -3.7%; chemical decomposition in medium by HPLC/MS (in words) [25]: Chemical decomposition was not detected; Matrix Stability: Remaining % ([16]; simulated gi fluid): 97%; half-life ([16]; simulated gi fluid): > 10 h; inhibition at 10 µM [17]: -1%; inhibition at 10 µM [19]: 10.4%; inhibition at 10 µM [20]: -6.5%; inhibition at 10 µM [21]: -1.5%; inhibition at 10 µM [22]: 0.5%; inhibition at 10 µM [23]: 2.1%

Reference: publication PMC8309005, “Novel Non-Congeneric Derivatives of the Choline Kinase Alpha Inhibitor ICL-CCIC-0019” (Pharmaceutics, 2021)
